Columns and labels:
[1] = test system: OCT4-positive cells in Stage 1 differentiations of hES cells; test: Plating assay for depletion of OCT4-positive cells in Stage 1 suspension aggregates, OCT4 immunostaining; type: cell-based, human; conditions: treated day 1 to 2 of Stage 1 at EC50 concentration; plated 24 hours in hESC medium; vs untreated or DMSO
Protocol: Human ES cell suspension aggregates were formed in rotational culture as described previously and differentiated through Stage 1 (definitive endoderm). About 20-30 aggregates were then plated per well in 4-well tissue culture dishes coated with MATRIGEL· diluted 1:200, and cultured for 24 hours in hESC medium (DMEM/F12, 10% XF-KSR, 10 ng/mL Activin A and 10 ng/mL Heregulin). This approach was intended to increase the contrast in OCT4 expression between undifferentiated hESCs and cells committed to differentiation. […] Stated in another way, mixed population cell cultures in hESC medium would potentially support expansion/proliferation of residual undifferentiated (hESCs), thereby show increased OCT4 gene expression, as compared to cells committed to differentiation, which would have decreased of OCT4 gene expression. Plated aggregates were immunostained for OCT4 protein and counterstained with DAPI, a nuclear stain (FIG. 12). The cell aggregates that were plated had flattened and spread out within a 24-hour period; while the centers of the aggregates were still domed. […] Brightly staining OCT4-positive cells were easily identified and distinguishable from the majority of OCT4 negative cells. OCT4-positive cells were generally found in clusters and most often within the domed area of a plated aggregate. […] Smaller aggregates residing in a larger aggregate may occur as a result of the initial stages of rotational culture, or the aggregation process, during which small clusters (primary aggregates) form initially. Aggregation of two or more primary aggregates likely leads to the formation of larger secondary aggregates, which can be 100-150 μm in diameter. Thus, it is possible that any single clusters of OCT4-positive cells exist at the center of a primary aggregate and resist differentiation. Such clusters would remain substantially undifferentiated and stain OCT4-positive. One hypothesis is that primary aggregates are specified to differentiation relative to their positioning in primary and secondary aggregates. For example, FIGS. 12A through 12E show a representative series of images, from small (primary) (e.g. FIGS. 12A and 12B) and larger (secondary) (e.g. FIGS. 12C-12E) plated aggregates containing OCT4-positive clusters (dark circles).
(§1) Depletion of OCT4-positive cells during Stage 1 differentiation was examined using the plating assay described above. Stage 1 differentiations of hES cells were treated from day 1 to 2 with the candidate compounds as described in Example 2 (chelerythrine chloride, caffeic acid and Ivermectin), at their EC50 concentrations for hES cells. Plated untreated and DMSO-treated aggregates were indistinguishable, and both contained discrete clusters of OCT4-positive cells. See FIG. 13A top and bottom panels for a DMSO treated example. The intensity of OCT4-positive staining in differentiating aggregate cell cultures treated with DMSO (control) was equivalent to undifferentiated hES cells.
Additional experiments were performed using higher concentrations of compounds and extended effects of the compounds in cell culture plated aggregates in hESC medium for 24 or 72 hours before staining (FIGS. 15 and 16). […] Another group of Stage 1 differentiating cultures were processed in parallel, but treated with 10 μm chelerythrine chloride.

[2] = test system: undifferentiated hESCs growing in adherent culture; test: EC50 of cytotoxic effect on undifferentiated hESCs in adherent culture, real-time impedance assay; type: cell-based, human; conditions: undifferentiated hESCs, adherent culture, real-time impedance; read-out: EC50 concentrations for hES cells (cytotoxic effect)
Protocol: In summary, the final three (3) candidates identified from both the primary and secondary screens (EXAMPLE 1) and the full screen of the LOPAC1280™ collection (EXAMPLE 2) were Chelerythrine Chloride, Caffeic acid and Ivermectin. FIG. 11 lists the known or inferred mode(s) of action for these three compounds, as well as their structures. EC50 values for the respective cytotoxic effects on undifferentiated hESCs growing in adherent culture were determined using real-time impedance assays.
as §1

Substance: 22, 23-dihydroavermectin B1a+22,23-dihydroavermectin B1b [Ivermectin]
- intensity for OCT4 staining [1]: significantly decreased
- EC50 [2]: 170 nM

Reference: patent US9365830B2, “Agents and methods for inhibiting human pluripotent stem cell growth” (VIACYTE, INC., priority 2010, dated 2016)
